Test results from patent US12390447B2, “Sirtuin 6 protein deacylase (SIRT6) activators” (Wisconsin Alumni Research Foundation, priority 2019, dated 2025).

Experiments:
SIRT6 = SIRT6 (Homo sapiens, UniProt Q8N6T7); experiment: Steady-state kinetic analysis of SIRT6 deacetylation (Michaelis-Menten); type: biochemical; settings: in the presence of 100 μM CL4, 50 μM TTNPB, 50 μM LPA or 50 μM LGly
Method: (§1) FIGS. 1A-F illustrate the identification of novel SIRT6 activators. (1A) Compound libraries BML-2803, BML-2800, and an additional set of 178 molecules were screened at 100 μM for their ability to stimulate SIRT6 (1 μM) deacetylation of H3K9ac peptide (20 μM) in the presence of 0.5 mM NAD^+. SIRT6 activity was measured by HPLC quantification of H3K9ac and deacetylated product (inset) and fold activations relative to DMSO control were determined and compiled. (1B) Fold-activation of SIRT6 (1 μM) determined in the presence of either 0-400 μM CL4, 0-150 μM TTNPB, 0-100 μM Lysophosphatidic acid (LPA), or 0-200 μM linoleoylglycine (LGly). Maximum fold-activation and EC50 determined by sigmoidal curve fit. […] Constants Km, H3K9ac and kcat were determined by fitting data to Michaelis-Menten equation. (1D) Fold-activations of SIRT1 (0.1 μM), SIRT2 (0.2 μM), SIRT3 (1 μM), SIRT5 (2 μM), and SIRT6 (1 μM) determined in the presence of CL4 (100 μM), TTNPB (50 μM), and LPA (50 μM) relative to DMSO control against 20 μM H3K9ac peptide and 0.5 mM NAD^+. […]
FIGS. 2A-D show results characterizing SIRT6 activator CL5D. […] (2B) SIRT6 demyristoylase activity determined in the presence of 0-25 μM H3K9myr peptide, 0.5 mM NAD^+ and 5% DMSO (•), 12.5 μM CL5D (▪), 25 μM CL5D (♦), and 50 μM CL5D (▴). […]

SIRT2 = molecular target: T1, SIRT2 (Homo sapiens, UniProt Q8IXJ6); experiment: SIRT2 deacetylase activity against H3K9ac peptide; type: biochemical
T1 sequence (Q8IXJ6 1-389): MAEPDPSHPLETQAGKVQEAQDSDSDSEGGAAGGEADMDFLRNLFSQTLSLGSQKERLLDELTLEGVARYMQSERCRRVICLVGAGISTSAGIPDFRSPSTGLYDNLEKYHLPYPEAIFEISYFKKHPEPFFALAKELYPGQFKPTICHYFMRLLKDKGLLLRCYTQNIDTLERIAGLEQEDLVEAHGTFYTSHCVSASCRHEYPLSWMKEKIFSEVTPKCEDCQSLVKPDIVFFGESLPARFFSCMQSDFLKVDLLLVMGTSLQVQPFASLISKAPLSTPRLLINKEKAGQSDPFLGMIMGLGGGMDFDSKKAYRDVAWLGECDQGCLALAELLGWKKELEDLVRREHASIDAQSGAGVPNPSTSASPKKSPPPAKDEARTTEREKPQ
Method: as §1
All sirtuin deacylation assays were carried out at 37° C. in 20 mM potassium phosphate pH 7.5 with 0.5 mM NAD^+, 10% DMSO, and 20 μM H3K9ac or H3K9myr peptides, unless otherwise noted in legend, and quenched by the addition of 2% TFA final. […] The product and substrate peaks were quantified and ratio of these allowed for quantification of product formation. […]

[1] = Micelle formation with fluorescent membrane probe diphenylhexatriene (DPH); type: physicochemical

SIRT6, sequence (Q8N6T7 whole entry): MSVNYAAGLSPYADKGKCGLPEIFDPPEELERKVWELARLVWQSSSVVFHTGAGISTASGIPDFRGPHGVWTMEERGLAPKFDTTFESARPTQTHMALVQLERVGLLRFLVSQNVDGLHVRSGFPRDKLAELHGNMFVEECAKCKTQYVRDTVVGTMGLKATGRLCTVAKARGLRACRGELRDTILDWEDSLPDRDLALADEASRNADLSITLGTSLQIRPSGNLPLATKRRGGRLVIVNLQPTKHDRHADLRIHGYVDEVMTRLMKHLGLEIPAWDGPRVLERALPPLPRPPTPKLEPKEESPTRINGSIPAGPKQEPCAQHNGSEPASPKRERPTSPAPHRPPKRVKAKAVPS

kcat (SIRT6) [s^−1 × 10^−3] | specificity for SIRT6 over SIRT2 (SIRT2; CL4 100 μM, TTNPB 50 μM, LPA 50 μM) | micelle formation (in words) [1] | SIRT2 deacetylase activity at high activator concentration (SIRT2; 400 μM compound) | concentration at which micelle formation was observed [1] [µM] | SMILES
1.5 ± 0.3 | greater than 19 fold | not observed to form micelles |  |  | O=C(O)c1ccc2c(c1)C(=O)N(c1ccc(NC(=O)c3ccc(Cl)cc3Cl)c(Cl)c1)C2=O [CL-4, 2-(3-chloro-4-(2,4-dichlorobenzamido)phenyl)-1,3-dioxoisoindoline-5-carboxylic acid]
 |  |  | inhibited |  | O=C(O)c1ccc2c(c1)C(=O)N(c1ccc(N(C(=O)c3c(Cl)cc(Cl)cc3Cl)C(=O)c3c(Cl)cc(Cl)cc3Cl)c(Cl)c1)C2=O [CL-5D, 2-(3-chloro-4-(2,4,6-trichloro-N-(2,4,6-trichlorobenzoyl)benzamido)phenyl)-1,3-dioxoisoindoline-5-carboxylic acid]
2.8 ± 0.1 |  |  |  | > 300 | CCCCC/C=C\C/C=C\CCCCCCCC(=O)NCC(=O)O [N-Linoleoylglycine, linoleoyl-glycine, reference compound]
